According to patent US20080064722A1, “AGENT FOR PROMOTING INTERFERON-Y PRODUCTION” (KABUSHIKI KAISHA HAYAHIBARA SEIBUTSU KAGAKU KENKYU, priority 2001, published 2008):

Columns and labels:
[1] = system: IFN-γ production by immunocompetent cells (spleen cells); experiment: Effect of cyanine dye on IFN-γ production (ex vivo: oral dosing of mice, spleen cells cultured with lipopolysaccharide, ELISA); assay type: in vivo, BALB/c female mice; settings: for IFN-γ Production: once a day over three days, spleen cells 1×10^6 cells/ml, 5 μg/ml lipopolysaccharide, 72 hours
Method: The following explains the effect of the cyanine dyes on INF-γ production by immunocompetent cells based on ex vivo experiment using mice as an experimental animal.
(§1) Twenty-five of 10-week-old BALB/c female mice were divided into five groups. A powder consisting of one part by weight of “NK-4”, a cyanine dye represented by Chemical Formula 1 produced by Hayashibara Biochemical Laboratories, Inc., Okayama, Japan, and 200 parts by weight of sodium bicarbonate was prepared. Then, the mixture was dissolved in physiological saline to give a concentration of 20 mg/ml. Successively, the solution was diluted to give different concentrations as indicated in Table 1 with 20 mg/ml of sodium bicarbonate aqueous solution for administration to the mice. The dilutions were orally administered to the mice in four groups once a day over three days.
Spleens were respectively extracted from the mice in each group, minced and suspended in a usual manner in the art to give the spleen cell suspension. The cell suspensions were collected and diluted in RPMI medium (pH 7.2), supplemented with 10% (v/v) calf serum […] and containing 10 mM HEPES (N-2-hydroxyethylpiperadine-N′-2-ethanesulfonic acid) and 5 μg/ml lipopolysaccharide, to give a concentration of 1×10^6 cells/ml, and were cultured at 37° C. for 72 hours. IFN-γ was measured by conventional enzyme-linked immunosorbent assay (ELISA). As a control, the mice of the group with no cyanine dye were treated similarly as above. The measured values of IFN-γ were converted into international units (IU) with reference to the standard mouse IFN-γ (Gg02-901-533) obtained form National institute of Health, U.S.A., as an IFN-γ standard.

mice = experiment: Observation of the mice administered with the cyanine dye (death, condition, side effects); assay type: in vivo
Method: as §1

LD50 of the cyanine dye = assay type: in vivo

Row | SMILES | IFN-γ Production ([1]; dose 1 μg/kg body weight) [IU/ml] | IFN-γ Production ([1]; dose 10 μg/kg body weight) [IU/ml] | IFN-γ Production ([1]; dose 100 μg/kg body weight) [IU/ml] | IFN-γ production relative to that of the control group ([1]; dose 1,000 μg/kg body weight, control 0.4 IU/ml) | IFN-γ Production ([1]; dose 1,000 μg/kg body weight) [IU/ml] | Serious side effect such as symptom of poisoning (mice; directly applied to living bodies) | Condition of mice (hair complexion, appetite, motility) (mice; mouse, in vivo, po) | Death of mice (mice; oral, 1 to 1,000 μg/kg body weight, once a day over three days) | LD50 (LD50 of the cyanine dye; intraperitoneal administration) [mg/kg body weight] | LD50 (LD50 of the cyanine dye; oral administration) [g/kg body weight]
1 | CCN1C=CC(=CC=C(C=Cc2cc[n+](CC)c3ccccc23)c2cc[n+](CC)c3ccccc23)c2ccccc21 [NK-4] | 1.2 | 2.2 | 2.3 | sevenfold | 2.8 | did not cause any serious side effect | good conditions of hair complexion, appetite, and motility | did not die | – | –
2 | CCCCCCCN1C(C)=CS\C1=C/C=C(/C=C/c1scc(C)[n+]1CCCCCCC)c1scc(C)[n+]1CCCCCCC [Chemical Formula 2] | – | – | – | – | – | – | – | – | 54 | 1.5
